From article PMC8708274, “Unveiling the Membrane and Cell Wall Action of Antimicrobial Cyclic Lipopeptides: Modulation of the Spectrum of Activity” (Pharmaceutics, 2021)
Like-named read-outs stand apart in the source and are kept apart here. Positions of bridges follow the written chain, without caps; N, C: chain ends. Non-standard residues stand in square brackets, D forms with d. Residues, ends and D or L forms follow the SMILES beside them. No end group written: not given here. *: point of attachment. Decanoyl = CCCCCCCCCC(=O)*; X1 = CC[C@H](C)CCCCC(=O)*; Dab = NCC[C@H](N)C(=O)O

Experiments:
[1] = system: Escherichia coli ATTC 25922; type: cell-based; conditions: broth microdilution, MHB, overnight 37 °C, triplicate
Experimental: (§1) The minimal peptide concentration required to prevent the growth of a given test organism was determined after incubation overnight at 37 °C and was defined as the MIC. Activity was determined in representative bacteria, Escherichia coli ATTC 25922, Pseudomonas aeruginosa ATTC 27853, and Staphylococcus aureus ATTC 25923, using the broth microdilution method. Serial-two-fold dilutions of peptide (from 0.06 to 32 μg/mL) were performed in Mueller–Hinton broth (MHB) culture medium in sterile 96-well polypropylene microtiter plates inoculated with a final concentration of 5 × 10^5 CFU·mL^−1 of bacteria in each well. Bacteria were in the pre-exponential phase. Each determination was done by triplicate. In order to be considered acceptable, the three MIC results have to differ in only in one well, and the result was always given as the higher of the three. Drug-free and microorganism-free wells were used as positive and negative controls, respectively. Bacterial growth was visually determined on the basis of turbidity.

[2] = system: Pseudomonas aeruginosa ATTC 27853; type: cell-based; conditions: broth microdilution, MHB, overnight 37 °C, triplicate
Experimental: as §1

[3] = system: Staphylococcus aureus ATTC 25923; type: cell-based; conditions: broth microdilution, MHB, overnight 37 °C, triplicate
Experimental: as §1

[4] = system: fresh rabbit erythrocytes; test: Hemolysis assay; type: cell-based; conditions: 335 μM lipopeptide, 1 h at 37 °C, 10 mM Tris 80 mM NaCl pH 7.4, absorbance 540 nm, average of three independent experiments
Experimental: Hemolytic activity was evaluated on fresh rabbit erythrocytes collected in EDTA collection tubes, as previously described. Briefly, an erythrocite suspension in buffer (10 mM Tris, 80 mM NaCl pH 7.4) was obtained by centrifugation (three times, 10 min at 4000 rpm) and adjusted at an optical density of 1 at 540 nm. Aliquots of 200 µL were incubated for 1 h at 37 °C with the different lipopeptides in 96-well polypropylene microtiter plates and centrifuged (15 min, 5000 rpm). Lipopetide-induced hemolysis was determined by measuring the absorbance at 540 nm of released hemoglobin (Asample) in the supernatant. Each determination was done by triplicate, and as negative and positive controls, erythrocytes in buffer (A0%) and in distilled water (A100%) were employed, respectively. Hemolysis was calculated according the following equation: % hemolysis = 100 · (Asample − A0%/A100% − A0%).

[5] = Kinetics of insertion into monolayers; type: binding, Salmonella enterica serotype Minnesota Re 595; conditions: initial pressure 32 mN·m^−1, peptide 0.48 μM, 25 min after injection, 10 mM Tris pH 7.4, 25 °C, average of three independent experiments (error < 10%)
Experimental: (§2) Monolayer studies were performed at room temperature (25 °C) on a monolayer system (NIMA Technology, Coventry, UK) by using a cylindrical PTFE (Teflon®, Wilmington, DE, USA) trough (5 cm diameter) containing a continuously stirred aqueous phase (12 mL, 10 mM Tris pH 7.4) and a Wilhelmy platinum plate connected to an electrobalance. The system was enclosed in a Plexiglass box to reduce surface contamination, and before each run, the plate and the trough were cleaned with hot water at >70 °C to avoid carryover of lipid or peptide. Monolayers of POPG, POPE/POPG (6:4), POPC, or LPS were formed by applying small drops of the lipid stock solutions in CHCl3 on the aqueous subphase with a microsyringe (Hamilton Co., Reno, NV, USA) to achieve a surface pressure of 32 mN·m^−1. After 10 min, allowing for solvent evaporation, a known aliquot of peptide was added without disturbance of the monolayer via an inlet port, and the surface pressure was continuously monitored.

[6] = Kinetics of insertion into monolayers; type: binding; conditions: 25 min after injection, 10 mM Tris pH 7.4, 25 °C, average of three independent experiments (error < 10%); for Increase in surface pressure (Δπ), POPE/POPG: POPE/POPG 6:4, initial pressure 32 mN·m^−1, peptide 0.48 μM; for Increase in surface pressure (Δπ), POPC / Increase in surface pressure (Δπ), POPG: initial pressure 32 mN·m^−1, peptide 0.48 μM
Experimental: as §2

[7] = FRET lipid mixing (NBD-PE/Rh-PE); conditions: 1:1 vesicles with 0.6% NBD-PE or Rh-PE, total lipid 107 μM, 25 °C, 10 mM Tris pH 7.4
Experimental: Large unilamellar vesicles (LUVs) of POPG, POPE/POPG (6:4), or POPC, alone or with the fluorescently labeled phospholipids NBD-PE or Rh-PE, were prepared by the evaporation of a mixture of the lipids and probes in CHCl3. The solvent was removed by a gentle stream of nitrogen gas followed by overnight storage under vacuum. The dried films were hydrated with Tris 10 mM pH 7.4 to the desired final lipid concentration and then sonicated in a bath type sonicator (Lab Supplies, Hickesville, NY, Model G112SPIT) until a clear dispersion was obtained (typically 3–5 min). […] The average diameter was determined by dynamic light scattering with a Malvern II-C Autosizer, with a z-diameter between 111 and 117 nm, and a polydispersity of 0.1. […] Moreover, they contained 0.2% Rh-PE for monitoring the fluorescence before and after the separation of the unencapsulated material, which was carried out by gel filtration on a Sephadex G-50 column eluted with 10 mM Tris 80 mM NaCl. In this way, the final lipid concentration was calculated taking into account the loss of lipid and the dilution of the sample.
Peptide-induced lipid mixing of vesicles of different composition was investigated in the same spectrofluorimeter, measuring the increase in fluorescence resonance energy transfer (FRET) from an NBD-PE donor population to an Rh-PE acceptor population. […]

P. aeruginosa = test: Transmission electron microscopy of treated bacteria; type: cell-based, Pseudomonas aeruginosa; conditions: 1xMIC, 2 h, room temperature, tryptone water
Experimental: (§3) Then, 500 µL of this culture were added to 50 mL of tryptone water for a concentration of ≈10^8 bacteria·mL^−1. Aliquots of 10 mL were incubated with the lipopeptide at the desired concentration for 2 h at room temperature, and bacterial cells were collected by centrifugation (12,857 g, 20 min). Samples were fixed with 2.5% glutaraldehyde in phosphate buffer for 2 h at 4 °C, washed with the same buffer, and post fixed with 1% osmium tetroxide in buffer containing 0.8% potassium ferricyanide at 4 °C. Then, the samples were dehydrated for 1 h in acetone, infiltrated in a graded series of Epon resin (Ted pella, Inc., Redding, CA, USA) during 2 days, and finally embedded in fresh Epon resin and polymerized at 60 °C during 48 h. Ultrathin sections were obtained using a Leica Ultracut UCT ultramicrotome (Leica, Vienna, Austria) and mounted on Formvar-coated copper grids. Sections were stained with 2% aqueous uranyl acetate and lead citrate and examined in a JEM-1010 electron microscope (Jeol, Tokyo, Japan).

E. coli = test: as above; type: cell-based, Escherichia coli; conditions: 1xMIC, 2 h, room temperature, tryptone water
Experimental: as §3

S. aureus = test: as above; type: cell-based, Staphylococcus aureus; conditions: 1xMIC, 120 min, tryptone water
Experimental: as §3

[8] = system: Escherichia coli ATTC 25922; conditions: cited from earlier work
Experimental: Table 1 Sequences and antimicrobial activities of the synthesized peptides determined as minimal inhibitory concentration (MIC) calculated for different bacteria strains. | column: MIC/µg mL^−1 (µM) / EC ^1 || Figure 3 Comparative TEM micrographs of P. aeruginosa (left) and E. coli (right). Untreated bacteria (a,b); bacteria treated with polymyxin analogues at 1xMIC: P. aeruginosa with spB-3 (4 μg·mL^−1) (c), or with of spE-10 (1 μg·mL^−1) (e); E. coli treated with spB-3 (2 μg·mL^−1) (d) or spE-10 (8 μg·mL^−1) (f). Lipopeptides cause the alteration of the membranes, with blebs protruding, loss of membrane, clear cytoplasmic zones, and even ghost cells. Similar results are obtained with natural PxB ((g,h), this last one is adapted from (Rabanal et al. Sci. Rep. 2015).

[9] = system: Pseudomonas aeruginosa ATTC 27853; conditions: cited from earlier work
Experimental: C6 analogues are devoid of antibacterial effect both against Gram-positive and Gram-negative bacteria, with MICs higher than 32 μg·mL^−1. C8 analogues show some activity, especially against P. aeruginosa but not on Gram-positive S. aureus. […] For example, MIC of 4 μg·mL^−1 and 2 μg·mL^−1 against P. aeruginosa for spB-3 and spE-3 respectively are obtained, where ... || Figure 3 Comparative TEM micrographs of P. aeruginosa (left) and E. coli (right). Untreated bacteria (a,b); bacteria treated with polymyxin analogues at 1xMIC: P. aeruginosa with spB-3 (4 μg·mL^−1) (c), or with of spE-10 (1 μg·mL^−1) (e); E. coli treated with spB-3 (2 μg·mL^−1) (d) or spE-10 (8 μg·mL^−1) (f). Lipopeptides cause the alteration of the membranes, with blebs protruding, loss of membrane, clear cytoplasmic zones, and even ghost cells. Similar results are obtained with natural PxB ((g,h), this last one is adapted from (Rabanal et al. Sci. Rep. 2015).

[10] = system: Staphylococcus aureus ATTC 25923; conditions: cited from earlier work
Experimental: C6 analogues are devoid of antibacterial effect both against Gram-positive and Gram-negative bacteria, with MICs higher than 32 μg·mL^−1. C8 analogues show some activity, especially against P. aeruginosa but not on Gram-positive S. aureus. […] For example, MIC of 4 μg·mL^−1 and 2 μg·mL^−1 against P. aeruginosa for spB-3 and spE-3 respectively are obtained, where ... || Since some of the polymyxin analogues also have good activities against S. aureus, the effects on the cell morphology of this Gram-positive bacteria were determined.

[11] = 5 × 10^5 CFU/mL, higher of the three
[12] = taken from the literature (analogues #37, #38, #39)
[13] = value in brackets, taken from the literature

In the case of CC[C@H](C)CCCCC(=O)N[C@@H](CCN)C(=O)N[C@H](C(=O)N[C@@H](CCN)C(=O)N[C@H]1CCNC(=O)[C@H]([C@@H](C)O)NC(=O)[C@H](CCN)NC(=O)[C@H](CCN)NC(=O)[C@H](CC(C)C)NC(=O)[C@@H](CC(C)C)NC(=O)[C@H](CCN)NC1=O)[C@@H](C)O [PxE, Polymyxin E, reference compound] (X1-[Dab]T[Dab][Dab][Dab][dL]L[Dab][Dab]T; lactam 4-C), the “MIC EC” value [1, 11] is reported as 1 µg/mL, the “MIC EC” value ([1]; value in brackets) is reported as 0.86 µM and the “MIC PA” value [2, 11] is reported as 0.5 µg/mL. The “MIC PA” value ([2]; value in brackets) was 0.43 µM, the “MIC SA” value [3, 11] was over 32 µg/mL and the “MIC SA” value ([3]; value in brackets) was over 27 µM. For the same compound, the hemolysis [4] was 13%, the “Increase in surface pressure (Δπ), LPS” value [5] was 11.1 mN·m^−1 and the “Increase in surface pressure (Δπ), POPE/POPG” value [6] was 7.9 mN·m^−1. The “Increase in surface pressure (Δπ), POPC” value [6] was 0.8 mN·m^−1, the “Increase in surface pressure (Δπ), POPG” value [6] was 5.3 mN·m^−1 and the “lipid mixing (increase in FRET)” value [7] was “no representative changes”.
With “Decanoyl-[Dab]T[Dab]C[Dab]FL[Dab][Dab]C (disulfide 4-10 (inferred)) [spB-3, the C10 analogue of PxB]” the “Increase in surface pressure (Δπ), LPS” value [5] was 11.0 mN·m^−1, the “Increase in surface pressure (Δπ), POPE/POPG” value [6] was 6.0 mN·m^−1 and the “Increase in surface pressure (Δπ), POPC” value [6] was 2.0 mN·m^−1. For the same compound, the “Increase in surface pressure (Δπ), POPG” value [6] was 6.2 mN·m^−1, the “ultrastructural effect on P. aeruginosa (TEM)” value (P. aeruginosa) was “formation of blebs that protrude from the outer membrane” and the “ultrastructural effect on E. coli (TEM)” value (E. coli) was “extensive bleb formation”. For the same compound, the “ultrastructural effect on S. aureus (TEM)” value (S. aureus) was “formation of spherical mesosome-like intracellular structures and membranous inclusion bodies together with deformation of the cell envelope”, the “MIC EC” value [8, 12] was 2 µg/mL and the “MIC EC” value [8, 13] was 1.6 µM. The “MIC PA” value [9, 12] was 4 µg/mL, the “MIC PA” value [9, 13] was 3.2 µM and the “MIC SA” value [10, 12] was 8 µg/mL. The “MIC SA” value [10, 13] was 6.5 µM.
